Laboratory results published in the NIST ThermoML archive (doi:10.1021/je300590v).

Settings: Vibrating tube method

O=C=O [carbon dioxide]
Settings	mass density [kg/m3]
273.15 K, 1001 kPa, Gas	21.2
273.15 K, 2001 kPa, Gas	45.7
273.15 K, 3001 kPa, Gas	77.3
273.15 K, 3300 kPa, Gas	89.9
273.15 K, 3500 kPa, Liquid	928.1
273.15 K, 4001 kPa, Liquid	932.4
273.15 K, 5001 kPa, Liquid	940.7
273.15 K, 6000 kPa, Liquid	948.2
273.15 K, 7000 kPa, Liquid	955.3
273.15 K, 8003 kPa, Liquid	961.9
273.15 K, 9001 kPa, Liquid	968.1
273.15 K, 10002 kPa, Liquid	974.1
273.15 K, 11003 kPa, Liquid	979.7
273.15 K, 12000 kPa, Liquid	985.1
273.15 K, 13004 kPa, Liquid	990.1
273.15 K, 14002 kPa, Liquid	995
273.15 K, 15001 kPa, Liquid	999.7
273.15 K, 16002 kPa, Liquid	1004.3
273.15 K, 17000 kPa, Liquid	1008.6
273.15 K, 18001 kPa, Liquid	1012.8
273.15 K, 19001 kPa, Liquid	1017
273.15 K, 20000 kPa, Liquid	1020.8
283.15 K, 1000 kPa, Gas	20.4
283.15 K, 2001 kPa, Gas	43.1
283.15 K, 3001 kPa, Gas	70.9
283.15 K, 4000 kPa, Gas	108.4
283.15 K, 4400 kPa, Gas	130.1
283.15 K, 5001 kPa, Liquid	869.1
283.15 K, 6003 kPa, Liquid	882.2
283.15 K, 7000 kPa, Liquid	893.3
283.15 K, 8001 kPa, Liquid	903
283.15 K, 9001 kPa, Liquid	912.2
283.15 K, 10001 kPa, Liquid	920.4
283.15 K, 11001 kPa, Liquid	928.2
283.15 K, 12000 kPa, Liquid	935.5
283.15 K, 13001 kPa, Liquid	942.2
283.15 K, 14001 kPa, Liquid	948.3
283.15 K, 15000 kPa, Liquid	954.3
283.15 K, 16001 kPa, Liquid	960.1
283.15 K, 17001 kPa, Liquid	965.5
283.15 K, 18002 kPa, Liquid	970.8
283.15 K, 19001 kPa, Liquid	975.7
283.15 K, 20000 kPa, Liquid	980.4
293.15 K, 1011 kPa, Gas	19.8
293.15 K, 2001 kPa, Gas	41
293.15 K, 3001 kPa, Gas	66.2
293.15 K, 4000 kPa, Gas	97.3
293.15 K, 5000 kPa, Gas	140.4
293.15 K, 5600 kPa, Gas	182.2
293.15 K, 5800 kPa, Liquid	774.1
293.15 K, 6001 kPa, Liquid	783.3
293.15 K, 7003 kPa, Liquid	809.1
293.15 K, 8001 kPa, Liquid	827.5
293.15 K, 9002 kPa, Liquid	843.2
293.15 K, 10001 kPa, Liquid	856.1
293.15 K, 11001 kPa, Liquid	867.7
293.15 K, 12000 kPa, Liquid	877.9
293.15 K, 13000 kPa, Liquid	887.3
293.15 K, 14000 kPa, Liquid	895.9
293.15 K, 15003 kPa, Liquid	904
293.15 K, 16003 kPa, Liquid	911.5
293.15 K, 17001 kPa, Liquid	918.6
293.15 K, 18002 kPa, Liquid	925
293.15 K, 19002 kPa, Liquid	931.2
293.15 K, 20000 kPa, Liquid	937.1
